melting point [°C]	Compound
275 to 277	CCc1[nH]n(-c2c(Cl)cc(Cl)cc2Cl)c2nc(Cc3ccc(-c4ccc(OC)cc4)cc3)nc(=O)c1-2
148 to 151	CN1C(=O)N(c2c(Cl)cccc2Cl)Cc2cnc(Nc3ccc(CCO)cc3)nc21
114 to 116	[N-]=[N+]=Nc1cc(Cl)nc(-c2ccc([N+](=O)[O-])o2)n1
122 to 124	N#CCc1cccc(-c2onc3ccccc23)c1
187 to 188	CS(=O)(=O)c1ccc(-c2cnn(-c3ccc(F)c(F)c3)c(=O)c2-c2ccc(Cl)cc2)cc1
208 to 210	Cc1cccc(-c2n[nH]cc2-c2ccc(F)c(-c3cnc(C(C)(C)O)s3)c2)n1
236 to 238	CC1(C)CC(=O)c2c(nc(C3CCCC3)c(C(=O)c3ccc(C(F)(F)F)cc3)c2-c2ccsc2)C1
186	Cc1cccc(NC(=O)NCC(=O)N(CC(=O)N2CCSC(C)(C)C2)c2ccccc2)c1
187 to 188	CNS(=O)(=O)c1cc2c(c(C(=O)NCC3CCN(C)C3)c1)OCCO2 (configuration not stated)
281 to 283	CC(=O)N1CC(C)(C)c2cc3[nH]nnc3cc21
195 to 197	CCCCc1oc2ccccc2c1-c1ncc(-c2ccc3cc(OCc4ccc(C(=O)OC)cc4C(=O)OC)ccc3c2)o1
186 to 188	CC(C)[C@]1(CCc2ccccc2)CC(O)=C(Sc2cc3sc(N)nc3cc2C(C)(C)C)C(=O)O1
227 to 228	CC(C)n1c(=O)c(=O)[nH]c2ccccc21
163 to 164	Cn1ccc(-c2ccc([N+](=O)[O-])o2)n1
87 to 88	C=CCNc1nc(NCC=C)c2scc(Br)c2n1
97 to 97.5	CCCCN1C2=NCCN2C(c2ccccc2)c2cc(Cl)ccc21 (configuration not stated)
98 to 99	COc1ccc(CNC(=O)c2ccccc2)cc1
264 to 266	O=C(Nc1ccccc1)c1ccc(Nc2ccccc2)nc1
162 to 165	CC(C)c1ccc2c(c1)c(Sc1ccccc1)c(CC(C)(C)C(=O)O)n2Cc1ccc(Cl)cc1
194	O=C(c1cc(=O)c2cc(O)ccc2[nH]1)N1CCC(Cc2ccc(Cl)cc2)CC1
85 to 87	COC(=O)c1sc(-c2ccccc2)c(Br)c1O
73 to 80	CCCNc1nc(N)c2ncn(C3C=CCCC3)c2n1 (configuration not stated)
250 to 252	CC1(C)Oc2ccc(C#N)cc2[C@@H](NC2=C(F)C(=O)CC2)[C@@H]1O (relative stereo)
205 to 206	Nc1ccc(S(=O)(=O)N2CCCC(c3ccc(Cl)cc3)=N2)cc1
110 to 111	CC(C)C[C@H](O)[C@H](O)[C@@H](N)CC1CCCCC1

melting point [°C]	Compound
235	CCCc1ccc2c(c1)C=Cc1sc(C)nc1C2c1cn(C)c(=O)[nH]c1=S (configuration not stated)
77 to 78	CN(C)S(=O)(=O)c1cc2c(c(Cl)c1Cl)OC(CCl)C2 (configuration not stated)
264 to 265	O=C(O)c1ccc2c3c(ccc(C(O)=NC4CCCCC4)c13)CC2
246 to 248	Nc1nc(COc2ccc(Cl)cc2)nc2nccnc12
218 to 219	Nc1cc(C(=O)O)cc(S(N)(=O)=O)c1NCc1ccccc1
129 to 131	CN1CC(c2ccc(S(C)(=O)=O)cc2)=C(c2ccc(Cl)cc2)C1=O
103 to 104	COc1ccc(CCNC(=O)C2CCC2)cc1C
142 to 144	O=[N+]([O-])c1ccc(CN2CC=C(/C=C/c3ccccc3)CC2)cc1
126 to 130	CCCCCCCCCCCCCCCCOc1coc(C(=O)O)cc1=O
196 to 197	Cc1c(NC(=O)c2ccc(OCc3ccc(C(F)(F)F)cc3)cc2)ccc2cc(CN3CCCC3)cnc12
261 to 262	Cn1c(=O)c(-c2ccc(Cl)cc2Cl)cc2c3cc(-c4csc(CO)n4)ccc3n(C)c21
164 to 165	CCC(Cn1cncn1)(C(N)=O)c1ccc(Cl)cc1Cl (configuration not stated)
98 to 100	CC(C)Cc1sc(-c2nccs2)c2c1C(=O)CC(C)(C)C2
56 to 57.5	CCC(=NO)c1ccc(Cl)cc1
183 to 184	C=CCn1c(C)nc2c3c(c(C(=O)OCC)cc21)C(=O)CC1(Cc2ccccc2C1)N3
172 to 173	CCCCn1c(=O)n(C(C)C)c(=O)c2[nH]c(C)nc21
196 to 197	CC(=O)c1cn(Cc2ccccc2)c(=O)[nH]c1=O
302 to 303	O=C1NC(=O)C(c2ccccc2)(c2c[nH]c3ccccc23)N1 (configuration not stated)
45	CCC(CO)Nc1ccc(Cl)cc1[N+](=O)[O-] (configuration not stated)
179 to 180	CCCCc1nc2c(N)nc3ccccc3c2n1CCCCS(=O)(=O)c1ccccc1
87 to 88	CC(=O)CSc1nc2ccccc2n1C
180	COc1ccc(S(=O)(=O)C2(C(=O)O)CCN(C3CCCCCCC3)CC2)cc1
262 to 263	Cc1cc(C)c([N+](=O)[O-])cc1-n1c(C)cc(C)c(C#N)c1=O
94 to 95	Cc1cc(-c2ccnc(C#N)c2)n(-c2ccc(F)cc2)n1
99 to 100	CC1(C)NCCc2ccccc2C1c1ccccc1 (configuration not stated)

melting point [°C]	Compound
178 to 180	N#Cc1cc(F)c(N=C=S)cc1O
202 to 203	COc1ccc(Cl)cc1C(=O)NCCc1ccc(-c2ccccn2)c(S(N)(=O)=O)c1
80 to 81	Cn1nc(-c2ccccc2)c(N)c1-c1ccccc1
220 to 221	CC(C)Cc1ccc(-c2cc(C(=O)O)cc(-c3ccc(Cl)cc3)n2)cc1
145 to 146	CN1C(=O)CCC2(C)c3ccc(C(c4ccccc4)c4ccccc4)cc3CCC12 (configuration not stated)
109 to 111	Cc1ccc2c(c1)c(-c1ccccc1)nn2CO
292	Cc1cc(-c2cnn3c(C(F)(F)F)cc(-c4ccc(F)c(Cl)c4)nc23)ccn1
141 to 143	O=C(c1cccnc1)N1CC2CCc3ccccc3C2=N1 (configuration not stated)
118 to 120	N#CCCC(C#N)(CCC#N)C(N)=O
91 to 93	OCc1ccc(O)c(CO)c1CNCCCCCCOCCc1ccco1
196 to 198	COCC(=O)NCc1cccc2c1C(=O)N(C1CCC(=O)NC1=O)C2=O (configuration not stated)
253 to 260	CC1(C)CC=Nc2nc(N)c3ccccc3c21
149 to 151	COC(=O)C(C)=C1CCC2C3CCC4=CC(=O)CCC4(C)C3CCC12C (configuration not stated)
132	COC(=O)C=CC=Cc1cc([N+](=O)[O-])ccc1Cl
135	O=Cc1cc([N+](=O)[O-])c(CCl)cc1O
265 to 266	CN1CCN(c2n[nH]c(-c3ccc(I)cc3)c2-c2ccncc2)CC1
42 to 46	COC(=O)c1nscc1S(=O)(=O)Cl
45	C1=NCCN1c1ccccc1
210 to 212	CCN(CC)CC1CCCCN1CC(=O)N1c2ccccc2C(=O)Nc2cccnc21 (configuration not stated)
127 to 129	COC(=O)C(OC)Oc1ccc(C2CCN(c3ccncc3)CC2)cc1 (configuration not stated)
272 to 277	CNC(=O)c1ccc(C=CC(=O)Nc2cccc(-c3ccc(C)c(CO)c3C)c2)cc1
76 to 78	CSC1Oc2ccc(Cl)cc2C1=O (configuration not stated)
255 to 256	CCOCc1nc2c(N)nc3cc(O)ccc3c2n1CC(C)(C)NS(C)(=O)=O
131 to 132	COc1ncccc1-c1cnn2ccc(N3CCN(C(=O)OC(C)C)CC3)nc12
201 to 202	O=[N+]([O-])c1ccc(-c2nc3ccc(F)cc3s2)cc1

melting point [°C]	Compound
174 to 176	COC(=O)c1cc2ccncc2c2sc3ccccc3c12
99.5	CC(=O)OCC(=O)C1(OC(C)=O)CCC2C3CCC4=CC(=O)C=CC4(C)C3C(O)CC21C (configuration not stated)
219 to 221	CCCOc1cccc(-c2ccc3c(c2)C=C(C(=O)Nc2ccc(CN(C)C4CCOCC4)cc2)CCS3(=O)=O)c1
195 to 199	CC(=O)C(=Cc1ccc(C(=O)O)cc1)C(C)=O
145 to 147	CC(C#Cc1ccc(Oc2ccc(Cc3ccc(F)cc3)cc2)o1)N(O)C(N)=O (configuration not stated)
187 to 189	COc1ccc(C(=C/C=C/C(=O)O)c2ccc(OC)cc2)cc1
124 to 126	CCOP(=O)(OCC)C(C)c1cn(C(c2ccccc2)(c2ccccc2)c2ccccc2)cn1 (configuration not stated)
191 to 193	Cc1cc(O)nc(CCCCOc2nccc(NC(N)=NCC(F)(F)F)n2)n1
245 to 246	CN(C)c1ccc(NC(=O)Cn2c(-c3ccc(Cl)cc3)nc3cccnc32)cc1
256 to 260	Cc1c(C)c(N2CCN(c3c(C)c(C)c4c(c3C)CC(C)(C)O4)CC2)c(C)c2c1OC(C)(C)C2
> 270	Cn1c2cc(O)c(O)cc2c2cc(O)c(O)cc21
102 to 103	O=C1NC(=O)c2cc(CCCCOc3ccccc3)ccc21
213 to 214	Nc1nc2ccccc2c2c1ncn2CCCCNC(=O)c1ccncc1
164 to 165	O=C(O)CCc1ccc(CCNC(=O)c2ccccc2)cc1
164 to 167	C=CCSc1sc(-c2cc[nH]n2)c2c1C(=O)CC(C)(C)C2
92 to 94	CC(C)COC(=O)N1CCN(C2=C(Cl)C(=O)c3ccccc3C2=O)CC1
62 to 63	NCCCN1CCN(C(c2ccccc2)c2ccccc2)CC1
114 to 116	COC(=O)c1ccc(O)c(C2CCCC2)c1
168 to 169	CNC(=O)c1ccc(-c2cnc3oc(=O)n(Cc4cccc(OC)c4)c3n2)cc1
151 to 154	CCOc1ccnc(N2CCN(C(=O)c3ccccc3C#N)CC2)n1
229 to 234	CCCCCOc1ccc(C=C2SC(=S)N(CC(=O)O)C2=O)cc1OCc1ccccc1
90 to 93	CCOCc1cnc2c(N)cccc2c1Cl

Compound	melting point [°C]
CN1CCCC2CCCC(N(C)C(=O)Cc3ccc(Cl)c(Cl)c3)C21 (configuration not stated)	92
CS(=O)(=O)CC(N)C1(c2ccc(Cl)cc2)CCC1 (configuration not stated)	134 to 135
Cc1cc(NC(=O)C(C)(O)COc2ccc(CC#N)cc2)ccc1[N+](=O)[O-] (configuration not stated)	143 to 145
Cc1nnc(CNC(=O)CCl)n1-c1ccc(Cl)cc1C(=O)c1ccccc1	140 to 141
O=[N+]([O-])c1cc(O)c(O)c([N+](=O)[O-])c1	168 to 170

From a melting point compilation (Tetko et al.; mined from patent text by program, amines drawn as free bases though some values may be those of a salt)
